Data set [1] has as its system purified peritoneal mast cells (Mc-cpa). In kind it is in vitro ADME, mouse. The conditions noted are these: Mc-cpaY356L,E378A mast cells, 2 μM ionomycin, 37°C, 60 min; reduced (DTT/IAA) sample; MALDI-TOF.
For data set [2] the following is noted: mouse, 37°C, up to 60 min.

Take sarafotoxin 6b [S6b]: the “internal cleavage of S6b” value in data set [1] was “reaction products consistent with the masses of 1–13 and 1–14 fragments of S6b”.

Consider “Cys-Ser-Cys-Ser-Ser-Leu-Met-Asp-Lys-Glu-Cys-Val-Tyr-Phe-Cys-His-Leu-Asp-Ile-Ile-Trp”, for which, in data set [2], the not cleaved result is reported as “ET-1 (1–21) was also maintained”.
